Key:
Format in all cases: biochemical
Src = molecular target: T1, Src (Homo sapiens, UniProt P12931); assay: AlphaScreen kinase assay, Src; details: read-out: IC50, activity toward kinase Src
T1 construct: P1144. pET-N6 BI-PTP SRC V86-L536-X; made in house
Experimental: (§4) AlphaScreen assays were done using compounds dissolved in DMSO to a concentration of 20 mM. The compounds were diluted accordingly to the desired final concentrations in each sample well, using 1:3 serial dilution for a total of 8 concentration points. Plates were prepared such that each kinase reaction is 20 μl in 1× kinase buffer, 5% DMSO and 10 μM ATP. After incubation of the kinase reaction for 1 hour at room temperature, 5 μl of donor beads in stop buffer (50 mM EDTA in 1× kinase buffer) was added, the sample was mixed and incubated for 20 minutes at room temperature before adding 5 μl of acceptor beads in stop buffer. The samples were incubated for 60 minutes at room temperature and the signal per well was read on AlphaQuest reader.

Kit = molecular target: T2, Kit (Homo sapiens, UniProt P10721); assay: AlphaScreen kinase assay, Kit; details: read-out: IC50, activity toward kinase Kit
T2 construct: P1332.N6 BI PTP KIT M552-K948-X COD; His6 (N); made in house; host or cells: E. coli (PTP1B co-expressed)

Jnk3 = molecular target: T3, Jnk3 (Homo sapiens, UniProt P53779); assay: AlphaScreen kinase assay, Jnk3; details: read-out: IC50, activity toward kinase Jnk3
T3 construct: purchased Upstate Biotechnology

FGFR1 = molecular target: T4, FGFR1 (Homo sapiens, UniProt P11362, C488A/C584S); assay: AlphaScreen kinase assay, FGFR1; details: read-out: IC50, activity toward kinase FGFR
T4 construct: P1351.pET N6 BI-PTP FGFR A458-E765-X C488A, C584S; made in house; host or cells: E. coli (PTP1B co-expressed)

Flt1 = molecular target: T5, Flt1 (Homo sapiens, UniProt P17948); assay: AlphaScreen kinase assay, Flt1; details: read-out: IC50, activity toward kinase Flt1
T5 construct: P1826.pETN6 BI-PTP FLT1 M799-D1165-X WT; His6 (N); made in house; host or cells: E. coli (PTP1B co-expressed)
T5 sequence (P17948 with tags, fused parts or gaps): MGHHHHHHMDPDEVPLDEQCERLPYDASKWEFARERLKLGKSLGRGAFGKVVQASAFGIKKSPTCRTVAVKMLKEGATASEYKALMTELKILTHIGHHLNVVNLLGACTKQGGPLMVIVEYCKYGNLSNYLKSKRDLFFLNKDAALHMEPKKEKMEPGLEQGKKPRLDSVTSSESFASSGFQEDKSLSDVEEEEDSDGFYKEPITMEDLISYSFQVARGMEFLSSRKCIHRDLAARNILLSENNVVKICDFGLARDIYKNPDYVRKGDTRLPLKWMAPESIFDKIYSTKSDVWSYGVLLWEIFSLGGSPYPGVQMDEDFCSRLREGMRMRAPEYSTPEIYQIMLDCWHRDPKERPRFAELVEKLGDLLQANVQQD

TEC = molecular target: T6, TEC (Homo sapiens, UniProt P42680); assay: AlphaScreen kinase assay, TEC; details: read-out: IC50, activity toward kinase TEC
T6 sequence (P42680 1-631): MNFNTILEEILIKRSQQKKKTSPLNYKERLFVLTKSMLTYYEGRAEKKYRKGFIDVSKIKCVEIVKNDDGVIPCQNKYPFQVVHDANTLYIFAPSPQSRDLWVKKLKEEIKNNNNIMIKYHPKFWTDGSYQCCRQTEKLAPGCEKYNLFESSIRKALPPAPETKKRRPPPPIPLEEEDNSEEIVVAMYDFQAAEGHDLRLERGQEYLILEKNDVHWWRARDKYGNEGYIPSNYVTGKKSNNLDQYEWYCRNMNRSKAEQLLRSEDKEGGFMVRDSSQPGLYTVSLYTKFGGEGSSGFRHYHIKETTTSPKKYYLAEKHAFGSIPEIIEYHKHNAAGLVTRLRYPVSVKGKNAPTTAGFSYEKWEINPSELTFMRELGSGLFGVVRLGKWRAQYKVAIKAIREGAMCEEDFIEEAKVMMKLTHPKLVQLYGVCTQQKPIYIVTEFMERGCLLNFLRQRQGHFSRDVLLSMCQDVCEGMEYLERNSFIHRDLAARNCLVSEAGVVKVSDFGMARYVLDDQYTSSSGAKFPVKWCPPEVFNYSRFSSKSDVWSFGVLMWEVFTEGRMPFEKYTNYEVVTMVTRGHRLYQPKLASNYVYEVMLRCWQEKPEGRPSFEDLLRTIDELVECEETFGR
Excerpt: (§1) AlphaScreen assay was used to screen additional kinases. The assay is similarly dependent on the phosphorylation of a peptide substrate. In this assay, an antibody that recognizes phosphorylated substrate is bound to an acceptor bead. The peptide substrate is attached to biotin, which binds to a donor head that contains streptavidin. Thus phosphorylated substrate is bound by antibody and streptavidin, bringing the donor and acceptor heads into close proximity when kinase is not inhibited. The donor produces singlet oxygen which results in emission from the acceptor when they are in close proximity. Conversely, when kinase is inhibited, the donor and acceptor beads are not associated and the emission from the acceptor is reduced.
(§2) AlphaScreen assays were done using compounds dissolved in DMSO to a concentration of 20 mM. The compounds were diluted accordingly to the desired final concentrations in each sample well, using 1:3 serial dilution for a total of 8 concentration points.

c-Raf-1 = molecular target: T7, c-Raf-1 (Homo sapiens, UniProt P04049); assay: AlphaScreen kinase assay, c-Raf-1; details: read-out: IC50, activity toward kinase c-Raf-1
T7 construct: purchased Upstate Biotechnology

B-Raf = molecular target: T8, B-Raf (Homo sapiens, UniProt P15056); assay: AlphaScreen kinase assay, B-Raf; details: read-out: IC50, activity toward kinase B-Raf
T8 construct: purchased Upstate Biotechnology

Gsk3β = Gsk3β (Homo sapiens, UniProt P49841); assay: AlphaScreen kinase assay, Gsk3β; details: read-out: IC50, activity toward kinase Gsk3β
Procedure, shortened: (§3)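 Emission from acceptor beads reports phosphorylated biotin-peptide bridging antibody-coated acceptor and streptavidin donor beads; loss of signal reflects kinase inhibition. Eight-point, threefold dilution series prepared from 20 mM DMSO stocks.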

MAP4K4 = MAP4K4 (Homo sapiens, UniProt O95819); assay: AlphaScreen kinase assay, MAP4K4; details: read-out: IC50, activity toward kinase MAP4K4
Experimental: as §4

Btk = molecular target: T9, Btk (Homo sapiens, UniProt Q06187); assay: Z'-Lyte FRET kinase assay (Invitrogen), Btk; details: read-out: IC50, activity toward kinase Btk
T9 construct: purchased Invitrogen (assay run by Invitrogen)
Excerpt: For example, direct radiometric, indirect FRET or AlphaScreen assays may be used to assess the level of phosphorylation of a substrate in the presence of test compounds in order to determine the inhibitory affect of the compound on the kinase. […] For these assays, compounds of the invention were screened by Invitrogen using Z′-Lyte™ kinase assay.
Briefly, the Invitrogen kinase assay involves use of a specific peptide substrate optimized for each kinase, containing a fluorophore at each end that make up the FRET pair. The peptide sensitivity to proteolytic cleavage depends on phosphorylation of the peptide. Non-phosphorylated peptide is cleaved by a protease while peptide phosphorylated by the kinase is not cleaved. Cleavage of the peptide disrupts the FRET between the donor (coumarin) and acceptor (fluorescein) fluorophores, resulting in an increase in the ratio of donor emission to acceptor emission. The emission ratio of coumarin to fluorescein is used to assess the reaction progress. […] Thus, the assay involves a kinase reaction in the presence of varying concentrations of a given compound, a development reaction with site specific protease, and detection of the fluorescent emission ratio of coumarin and fluorscein. […] Reaction conditions for each kinase are determined to provide optimal reaction times, incubation temperature, kinase and ATP concentrations. Test samples are made up in 1× kinase buffer (50 mM HEPES pH 7.5, 50 mM MgCl2, 5 mM EGTA, 0.05% BRIJ-35) and compound at desired concentration prepared in DMSO such that the final DMSO is 1%. […] All kinase except for MAP2K1 were at 10 μM ATP in the kinase reaction, while MAP2K1 was at 100 μM. Samples are mixed and the kinase reaction is incubated 1 hour at room temperature, after which 5 μl of development solution is added and mixed. After incubation for another 1 hour at room temperature, 5 μl of stop reagent is added to each sample and mixed. The fluorescence signals are measured to determine the emission ratio.

Jnk1 = molecular target: T10, Jnk1 (Homo sapiens, UniProt P45983); assay: AlphaScreen kinase assay, Jnk1; details: read-out: IC50, activity toward kinase Jnk1
T10 construct: purchased Upstate Biotechnology

Fms = molecular target: T11, Fms (Homo sapiens, UniProt P07333); assay: AlphaScreen kinase assay, Fms; details: read-out: IC50, activity toward kinase Fms
T11 construct: purchased Upstate Biotechnology

B-Raf V600E = molecular target: T12, B-Raf V600E (Homo sapiens, UniProt P15056, V600E); assay: AlphaScreen kinase assay, B-Raf V600E; details: read-out: IC50, activity toward kinase B-Raf V600E
T12 construct: P4254. pFastBacBD-CDC37 BRAF D437-K722-X, V600E; His6 with pFastBac HT leader (TEV site) (N); made in house; host or cells: Sf9 (baculovirus; chaperone CDC37 co-expressed)

Plk1 = Plk1 (Homo sapiens, UniProt P53350); assay: AlphaScreen kinase assay, Plk1; details: read-out: IC50, activity toward kinase Plk1
Procedure, shortened: as §3

Frk = Frk (Homo sapiens, UniProt P42685); assay: AlphaScreen kinase assay, Frk; details: read-out: IC50, activity toward kinase Frk
Excerpt: as §1, §2

Brk = Brk (Homo sapiens, UniProt Q13882); assay: AlphaScreen kinase assay, Brk; details: read-out: IC50, activity toward kinase Brk
Excerpt: as §1, §2

Fak = molecular target: T13, Fak (Homo sapiens, UniProt Q05397); assay: AlphaScreen kinase assay, Fak; details: read-out: IC50, activity toward kinase Fak
T13 construct: P1358.pFastBacHtb FAK S411-Q686-X; His6 with pFastBacHTb leader (TEV site) (N); made in house; host or cells: Sf9 (baculovirus)

Kdr = molecular target: T14, Kdr (Homo sapiens, UniProt P35968); assay: Z'-Lyte FRET kinase assay (Invitrogen), Kdr; details: read-out: IC50, activity toward kinase Kdr
T14 construct: purchased Invitrogen (assay run by Invitrogen)

Csk = Csk (Homo sapiens, UniProt P41240); assay: AlphaScreen kinase assay, Csk; details: read-out: IC50, activity toward kinase Csk
Excerpt: as §1, §2

Stk6 = molecular target: T15, Stk6 (Homo sapiens, UniProt O14965); assay: Z'-Lyte FRET kinase assay (Invitrogen), Stk6; details: read-out: IC50, activity toward kinase Stk6
T15 construct: purchased Invitrogen (Carlsbad, Calif.), screening service
T15 sequence (O14965 1-403): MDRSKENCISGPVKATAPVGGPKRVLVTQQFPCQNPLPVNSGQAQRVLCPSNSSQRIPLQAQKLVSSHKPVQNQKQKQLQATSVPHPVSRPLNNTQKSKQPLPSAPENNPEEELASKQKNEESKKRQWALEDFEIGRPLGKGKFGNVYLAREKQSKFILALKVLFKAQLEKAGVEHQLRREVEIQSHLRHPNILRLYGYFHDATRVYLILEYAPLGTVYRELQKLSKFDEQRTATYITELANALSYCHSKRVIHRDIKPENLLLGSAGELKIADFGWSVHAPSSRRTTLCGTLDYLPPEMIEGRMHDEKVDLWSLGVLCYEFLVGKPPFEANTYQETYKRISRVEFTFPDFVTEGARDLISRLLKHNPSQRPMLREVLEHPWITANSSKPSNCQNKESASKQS

Measured: IC50

Sequence of Frk (P42685 whole entry): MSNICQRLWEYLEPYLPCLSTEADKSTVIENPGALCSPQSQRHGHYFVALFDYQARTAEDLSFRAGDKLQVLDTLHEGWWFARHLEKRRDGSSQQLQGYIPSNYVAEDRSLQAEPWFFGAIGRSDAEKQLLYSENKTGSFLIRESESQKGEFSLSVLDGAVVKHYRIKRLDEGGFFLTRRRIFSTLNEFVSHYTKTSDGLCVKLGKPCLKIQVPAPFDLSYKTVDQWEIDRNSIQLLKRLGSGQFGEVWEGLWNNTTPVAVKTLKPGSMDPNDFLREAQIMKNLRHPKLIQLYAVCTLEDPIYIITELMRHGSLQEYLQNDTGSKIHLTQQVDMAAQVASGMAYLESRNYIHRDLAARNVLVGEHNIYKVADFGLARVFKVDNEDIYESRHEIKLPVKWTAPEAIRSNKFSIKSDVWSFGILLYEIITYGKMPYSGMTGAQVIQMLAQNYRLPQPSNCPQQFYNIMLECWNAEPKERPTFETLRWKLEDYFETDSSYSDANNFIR
T11 sequence (P07333 20-972): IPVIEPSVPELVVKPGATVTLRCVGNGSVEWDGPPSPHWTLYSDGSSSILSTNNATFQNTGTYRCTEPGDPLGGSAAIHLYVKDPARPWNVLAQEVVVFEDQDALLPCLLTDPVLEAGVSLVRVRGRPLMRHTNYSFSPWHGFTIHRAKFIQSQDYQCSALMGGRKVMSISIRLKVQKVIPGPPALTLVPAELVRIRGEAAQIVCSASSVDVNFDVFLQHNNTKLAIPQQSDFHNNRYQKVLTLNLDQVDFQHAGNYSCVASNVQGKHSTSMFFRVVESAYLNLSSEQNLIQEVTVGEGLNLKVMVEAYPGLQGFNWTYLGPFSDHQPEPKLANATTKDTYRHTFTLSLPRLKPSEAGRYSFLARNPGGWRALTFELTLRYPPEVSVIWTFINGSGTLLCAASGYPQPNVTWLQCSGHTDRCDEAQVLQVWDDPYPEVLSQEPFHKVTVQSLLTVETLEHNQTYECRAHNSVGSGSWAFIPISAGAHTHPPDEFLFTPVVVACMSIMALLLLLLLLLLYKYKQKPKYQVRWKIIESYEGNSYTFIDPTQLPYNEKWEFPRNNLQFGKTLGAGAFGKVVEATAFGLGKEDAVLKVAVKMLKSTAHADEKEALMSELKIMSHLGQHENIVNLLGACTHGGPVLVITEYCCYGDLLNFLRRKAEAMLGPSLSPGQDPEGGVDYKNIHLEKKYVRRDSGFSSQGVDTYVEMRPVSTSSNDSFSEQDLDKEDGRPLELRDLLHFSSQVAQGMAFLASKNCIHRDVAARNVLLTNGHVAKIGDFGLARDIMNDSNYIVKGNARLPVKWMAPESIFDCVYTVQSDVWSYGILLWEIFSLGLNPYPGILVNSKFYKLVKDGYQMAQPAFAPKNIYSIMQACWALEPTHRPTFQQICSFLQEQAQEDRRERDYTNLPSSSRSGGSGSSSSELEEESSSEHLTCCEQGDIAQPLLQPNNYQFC
T8 sequence (P15056 whole entry): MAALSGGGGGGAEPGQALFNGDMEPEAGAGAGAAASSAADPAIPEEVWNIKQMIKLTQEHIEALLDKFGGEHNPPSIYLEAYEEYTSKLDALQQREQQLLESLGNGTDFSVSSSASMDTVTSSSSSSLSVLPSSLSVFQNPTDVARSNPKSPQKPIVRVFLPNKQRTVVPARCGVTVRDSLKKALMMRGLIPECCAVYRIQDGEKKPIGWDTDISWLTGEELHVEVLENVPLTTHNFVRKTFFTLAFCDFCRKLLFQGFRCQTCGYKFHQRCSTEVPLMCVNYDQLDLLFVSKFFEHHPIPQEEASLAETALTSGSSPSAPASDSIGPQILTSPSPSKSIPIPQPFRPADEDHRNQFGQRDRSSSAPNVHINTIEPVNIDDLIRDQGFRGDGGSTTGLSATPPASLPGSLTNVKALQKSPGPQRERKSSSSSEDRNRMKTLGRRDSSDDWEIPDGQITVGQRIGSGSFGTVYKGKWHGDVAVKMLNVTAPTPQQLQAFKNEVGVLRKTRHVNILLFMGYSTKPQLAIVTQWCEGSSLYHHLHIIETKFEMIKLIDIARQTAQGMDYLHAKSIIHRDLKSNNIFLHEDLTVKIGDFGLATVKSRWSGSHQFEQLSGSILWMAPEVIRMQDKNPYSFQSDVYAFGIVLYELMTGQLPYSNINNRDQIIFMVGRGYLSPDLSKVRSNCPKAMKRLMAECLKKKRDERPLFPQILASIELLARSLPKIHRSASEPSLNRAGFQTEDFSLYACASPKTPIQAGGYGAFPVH
T4 sequence (P11362 458-765 C488A/C584S): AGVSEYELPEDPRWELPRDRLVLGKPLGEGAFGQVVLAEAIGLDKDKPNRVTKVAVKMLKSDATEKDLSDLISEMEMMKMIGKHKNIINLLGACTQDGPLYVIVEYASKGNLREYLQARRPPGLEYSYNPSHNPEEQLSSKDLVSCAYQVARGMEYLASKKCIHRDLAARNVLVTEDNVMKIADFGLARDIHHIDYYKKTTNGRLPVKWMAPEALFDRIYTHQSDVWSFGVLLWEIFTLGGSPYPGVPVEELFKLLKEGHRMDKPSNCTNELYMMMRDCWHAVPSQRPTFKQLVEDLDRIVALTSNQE
T7 sequence (P04049 whole entry): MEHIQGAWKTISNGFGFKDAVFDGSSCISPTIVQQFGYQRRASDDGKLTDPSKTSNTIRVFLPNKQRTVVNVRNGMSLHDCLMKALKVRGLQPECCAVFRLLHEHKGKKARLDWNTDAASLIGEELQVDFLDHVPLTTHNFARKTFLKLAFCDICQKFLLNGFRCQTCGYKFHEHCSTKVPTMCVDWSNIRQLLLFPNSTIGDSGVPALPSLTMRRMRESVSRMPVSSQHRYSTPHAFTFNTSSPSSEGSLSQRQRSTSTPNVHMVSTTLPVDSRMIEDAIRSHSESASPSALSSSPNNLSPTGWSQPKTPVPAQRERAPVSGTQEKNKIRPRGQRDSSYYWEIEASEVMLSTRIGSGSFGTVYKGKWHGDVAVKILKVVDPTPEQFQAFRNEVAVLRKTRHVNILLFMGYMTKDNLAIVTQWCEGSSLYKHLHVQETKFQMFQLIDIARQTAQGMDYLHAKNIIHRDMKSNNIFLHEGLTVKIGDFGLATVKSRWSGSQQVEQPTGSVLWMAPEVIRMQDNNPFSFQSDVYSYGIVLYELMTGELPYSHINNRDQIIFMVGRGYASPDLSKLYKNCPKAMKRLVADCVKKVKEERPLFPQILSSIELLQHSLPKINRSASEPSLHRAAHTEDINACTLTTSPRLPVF
Sequence of Brk (Q13882 whole entry): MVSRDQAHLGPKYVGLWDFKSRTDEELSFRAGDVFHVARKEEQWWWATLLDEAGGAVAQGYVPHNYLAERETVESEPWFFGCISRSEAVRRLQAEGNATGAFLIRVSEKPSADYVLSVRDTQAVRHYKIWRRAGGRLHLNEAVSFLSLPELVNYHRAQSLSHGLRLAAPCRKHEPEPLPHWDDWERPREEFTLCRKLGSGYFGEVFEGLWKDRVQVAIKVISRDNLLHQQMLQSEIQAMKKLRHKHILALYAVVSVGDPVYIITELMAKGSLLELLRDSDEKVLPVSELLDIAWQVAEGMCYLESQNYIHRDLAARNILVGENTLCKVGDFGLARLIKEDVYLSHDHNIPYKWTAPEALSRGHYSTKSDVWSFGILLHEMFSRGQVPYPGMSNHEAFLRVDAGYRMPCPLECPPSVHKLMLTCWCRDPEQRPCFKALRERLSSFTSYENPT
Sequence of Csk (P41240 whole entry): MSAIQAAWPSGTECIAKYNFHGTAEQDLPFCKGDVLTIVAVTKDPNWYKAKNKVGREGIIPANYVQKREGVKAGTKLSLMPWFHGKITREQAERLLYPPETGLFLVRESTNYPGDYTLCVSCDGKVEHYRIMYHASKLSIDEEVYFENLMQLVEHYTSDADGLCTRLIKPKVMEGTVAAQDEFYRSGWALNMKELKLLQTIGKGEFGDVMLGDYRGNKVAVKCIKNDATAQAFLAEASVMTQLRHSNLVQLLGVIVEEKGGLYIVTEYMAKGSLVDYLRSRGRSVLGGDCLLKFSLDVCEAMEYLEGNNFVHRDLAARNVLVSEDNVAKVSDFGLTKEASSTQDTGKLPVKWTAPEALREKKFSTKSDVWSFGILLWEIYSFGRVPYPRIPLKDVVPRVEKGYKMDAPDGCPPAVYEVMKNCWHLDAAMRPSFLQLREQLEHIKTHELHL
T2 sequence (P10721 with tags, fused parts or gaps): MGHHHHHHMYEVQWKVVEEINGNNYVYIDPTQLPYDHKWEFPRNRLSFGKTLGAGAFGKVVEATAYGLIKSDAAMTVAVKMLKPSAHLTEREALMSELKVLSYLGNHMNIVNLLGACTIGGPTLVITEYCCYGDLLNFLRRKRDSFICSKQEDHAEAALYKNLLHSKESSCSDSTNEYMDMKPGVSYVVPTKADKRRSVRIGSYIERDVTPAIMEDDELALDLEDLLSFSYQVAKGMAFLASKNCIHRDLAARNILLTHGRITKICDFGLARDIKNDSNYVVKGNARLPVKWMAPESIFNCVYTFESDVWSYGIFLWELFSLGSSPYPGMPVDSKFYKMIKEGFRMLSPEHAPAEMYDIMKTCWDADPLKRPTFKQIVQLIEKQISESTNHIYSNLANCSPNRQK
T1 sequence (P12931 with tags, fused parts or gaps): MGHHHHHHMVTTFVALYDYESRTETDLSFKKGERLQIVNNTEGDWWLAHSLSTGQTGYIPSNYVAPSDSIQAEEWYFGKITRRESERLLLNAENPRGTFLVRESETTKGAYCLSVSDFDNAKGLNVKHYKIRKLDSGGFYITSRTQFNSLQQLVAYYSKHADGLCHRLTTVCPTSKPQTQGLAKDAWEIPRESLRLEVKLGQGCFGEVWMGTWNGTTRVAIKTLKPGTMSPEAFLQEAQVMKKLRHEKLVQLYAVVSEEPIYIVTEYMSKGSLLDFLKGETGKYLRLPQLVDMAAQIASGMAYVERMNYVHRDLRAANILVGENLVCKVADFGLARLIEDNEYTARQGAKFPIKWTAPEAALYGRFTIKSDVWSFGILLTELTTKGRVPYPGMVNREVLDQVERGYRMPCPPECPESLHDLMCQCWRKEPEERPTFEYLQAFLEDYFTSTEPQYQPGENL

O=C(Nc1ccc(F)c(C(=O)c2c[nH]c3ncc(-c4cccnc4)cc23)c1F)NC1CCCC1 [Compound P-1317, 1-Cyclopentyl-3-[2,4-difluoro-3-(5-pyridin-3-yl-1H-pyrrolo[2,3-b]pyridine-3-carbonyl)-phenyl]-urea]
not listed: Plk1 | Frk | Brk | Fak | Kdr | Csk | Stk6
≤ 10 µM: all other assays above

O=C(c1c(F)ccc(NS(=O)(=O)c2ccccc2)c1F)c1c[nH]c2nccc(Cl)c12 [Compound P-0954, N-[3-(4-Chloro-1H-pyrrolo[2,3-b]pyridine-3-carbonyl)-2,4-difluoro-phenyl]-benzenesulfonamide]
≤ 10 µM: Kit | FGFR1 | Plk1 | TEC | c-Raf-1 | B-Raf | MAP4K4 | Fms | B-Raf V600E

CCCS(=O)(=O)Nc1ccc(F)c(C(=O)c2c[nH]c3ncc(-c4ccc(Cl)cc4)cc23)c1F [Compound P-0956, Propane-1-sulfonic acid {3-[5-(4-chloro-phenyl)-1H-pyrrolo[2,3-b]pyridine-3-carbonyl]-2,4-difluoro-phenyl}-amide]
≤ 10 µM: Frk | Brk | Src | Kit | FGFR1 | Fak | Kdr | Jnk1 | Csk | Fms

CCCS(=O)(=O)Nc1cccc(C(=O)c2c[nH]c3ncc(Br)cc23)c1F [Compound P-0955, Propane-1-sulfonic acid [3-(5-bromo-1H-pyrrolo[2,3-b]pyridine-3-carbonyl)-2-fluoro-phenyl]-amide]
not listed: Jnk3 | Flt1 | TEC | Gsk3β | MAP4K4 | Btk | Jnk1 | Plk1 | Kdr
≤ 10 µM: all other assays above

CCCS(=O)(=O)Nc1ccc(Cl)c(C(=O)c2c[nH]c3ncc(Br)cc23)c1F [Compound P-0805, Propane-1-sulfonic acid [3-(5-bromo-1H-pyrrolo[2,3-b]pyridine-3-carbonyl)-4-chloro-2-fluoro-phenyl]-amide]
≤ 10 µM: Frk | Brk | Src | FGFR1 | Flt1 | c-Raf-1 | B-Raf | Csk | Fms | B-Raf V600E

O=C(c1c(F)ccc(NS(=O)(=O)N2CCCCC2)c1F)c1c[nH]c2ncc(Cl)cc12 [Compound P-1020, Piperidine-1-sulfonic acid [3-(5-chloro-1H-pyrrolo[2,3-b]pyridine-3-carbonyl)-2,4-difluoro-phenyl]-amide]
≤ 10 µM: Frk | Brk | Src | FGFR1 | Fak | TEC | c-Raf-1 | B-Raf | Btk | Csk | B-Raf V600E

CCCS(=O)(=O)Nc1cccc(C(=O)c2c[nH]c3ncc(Cl)cc23)c1F [Compound P-1013, propane-1-sulfonic acid [3-(5-chloro-1H-pyrrolo[2,3-b]pyridine-3-carbonyl)-2-fluoro-phenyl]-amide]
≤ 10 µM: Frk | Brk | Src | Stk6 | Kit | Fak | c-Raf-1 | B-Raf | Csk | Fms | B-Raf V600E

From US8415469B2, “Compounds and methods for kinase modulation, and indications therefor” (Plexxikon Inc., priority 2005, dated 2013)
